Here are results for one compound from patent US20220397566A1, “GAMMA-SECRETASE STABILIZING COMPOUND SCREENING ASSAY” (VIB VZW, priority 2019, published 2022).

Test [1] has as its target T1, PSEN1/g-secretase complex (Homo sapiens, UniProt P49768).
T1 construct: expressed in transfected cells
Description: Relocation of GFP-PSEN1/g-secretase to LAMP1-positive late endosomes (confocal immunofluorescence). The format is cell-based, mouse.

For test [2], the target named is T2, PSEN1/g-secretase (Homo sapiens, UniProt P49768). Description: Ab production in MEFs transfected with C99-3×FLAG (Western blot 82E1). The format is cell-based, mouse. Further details: expressed in transfected cells. The conditions noted are these: 16 hours. The method, then:
FIG. 5. Inhibitor dose-effect on Ab production. PSEN1 KO MEFs stably rescued with GFP-PSEN1 and transfected with C99-3×FLAG (6 h) were treated with different concentrations of (A, B) DAPT, or (C) L-685-458 as indicated. After 16 h, condition media and cell lysates were analyzed by Western blot using 82E1 monoclonal antibody to detect AP. Representative blot is shown in […] for DAPT treatment and quantification is shown in (B): mean+SEM, n=3 independent experiments. (C) PSEN1 KO MEFs. Quantification for L-685-458 is shown in (C), n=1.
Based on these new data, it is crucial to compare the sensitivity to g-secretase inhibitors of the g-secretase complex located in the late endosomes (producing intracellular Ab) and the broadly localised g-secretase complex (producing extracellular Ab). We therefore compared the dose-dependencies of translocated PSEN1/g-secretase with catalytic inhibition by DAPT. MEFs were transfected with APP-C99-3×FLAG for 6 hours and treated with different doses of DAPT. After 16 hours, conditioned media and cell lysates were collected and analysed by Western blotting for total secreted and intracellular Ab, respectively. This resulted for DAPT in a lower IC50 for secreted Ab inhibition (FIG. 5A-B).
Protein concentrations were determined by the Bio-Rad DC protein assay (Bio-Rad). Samples were separated by SDS-PAGE (4-12% Bis-Tris NuPAGE gels in MES running buffer (ThermoFisher Scientific) and transferred onto nitrocellulose membranes (ThermoFisher Scientific). After blocking in 5% non-fat milk, membranes were incubated with primary antibody (4° C., overnight) followed by washing and incubation with horseradish peroxidase (HRP)-conjugated secondary antibodies (1 h, room temperature). After final washing, immunodetection was done using enhanced chemiluminescence (Western Lightning-Plus ECL, PerkinElmer), and immunoreactive protein bands were digitally captured and quantified on a Fuji MiniLAS 3000 imager (Fuji, Dusseldorf, Germany) using Aida Image Analyzer software (Raytest, Germany). Data are represented as mean±SEM of at least three independent experiments.

Test [3] deals with T2, PSEN1/g-secretase. In words: GFP-PSEN1 relocation in primary hippocampal neurons. The format is cell-based. Further details: expressed in transfected cells; host or cells: rat (E18) primary hippocampal neurons, lentiviral pFUGW-GFP-PSEN1. Conditions: rat primary hippocampal neurons, 1 μM. The method, then: FIG. 1. DAPT relocates PSEN1/g-secretase to late endosomes. (A) PSEN1 and PSEN2 double knock-out (dKO) MEFs stably expressing GFP-PSEN1 or GFP-PSEN2 were treated for 16 h with 1 μM of DAPT or DMSO and immunostained for GFP (green) and LAMP1 antibodies (red). (B) Quantification of (A) using Mander's coefficient. (C) Ratio of GFP intensity in LAMP1-positive structures over total GFP intensity in the cell, normalized to DMSO-treated cells (control=Ctrl). (D) Quantification of size area of LAMP1-positive organelles per cell showing no significant differences between DMSO and DAPT-treated cells. (E) PSEN1, PSEN2 and NCT triple KO MEFs stably rescued with NCT-SNAP and GFP-PSEN1 were treated for 16 h with 1 μM of DAPT or DMSO (Ctrl). Prior to fixation, SNAP-Cell 647-SiR was added to label NCT-SNAP (red for Merge2). After 1 h, cells were fixed and immunostained for GFP (green) and LAMP1 (red for Merge2). Two merged images are shown. […] All graphs show the median with 95% confidence interval (n=3, ˜20 cells per experiments; p-values are calculated using Mann-Whitney test; ns means non-significant). […]
The plasmids pSG5-C99-3×FLAG and pMSCV-GFP-PSEN1-wt and FADs, pFUGW-GFP-PSEN1 were previously described (Sannerud et al 2016 Cell 166). […] Primary hippocampal neurons were infected at 3 to 4 days in vitro (DIV) and analyzed at 7 DIV.

Molecules are shown by their SMILES. Where two headings read alike, the source gives them in different places.

Turning to `C[C@H](NC(=O)Cc1cc(F)cc(F)c1)C(=O)N[C@H](C(=O)OC(C)(C)C)c1ccccc1` [DAPT, N—[N-(3,5-difluorophenacetyl)-L-alanyl]-S-phenylglycine t-butyl ester], in test [1] (PSEN1 KO MEFs rescued with GFP-PSEN1, 1 μM, 16 h), the “co-distribution of EGFP-PSEN1 with anti-LBPA immunoreactivity (late endosomes)” value is reported as “even more strongly co-distributed with anti-LBPA immunoreactivity”. In addition, the “relocation of EGFP-PSEN1 to LAMP1-positive organelles” value in test [1] (single PSEN1 KO MEFs stably transduced with EGFP-PSEN1, data not shown) was “Identical observations”. In addition, the “co-accumulation of EGFP-PSEN1 and NCT-SNAP in LAMP1-positive organelles” value in test [1] (triple KO MEFs rescued with EGFP-PSEN1 and NCT-SNAP, 1 μM, 16 h) is “co-accumulate in LAMP1-positive organelles”. For the same compound, the IC50 at PSEN1/g-secretase [2] (cell lysates, read-out: IC50 intracellular Ab) stood at 0.021 µM; on PSEN1/g-secretase [2] (conditioned media, read-out: IC50 for secreted Ab inhibition) it was 0.016 µM. Also, the “relocation of GFP-PSEN1” value on PSEN1/g-secretase [3] is recorded as “Identical observations”.

By IC50 is commonly meant the concentration at which inhibition is half-maximal.
